Assay: Selectivity of CPC solvent systems for contaminants of 10-DAB III (contaminants identified by HPLC relative retention time)
Format: physicochemical
Conditions: CPC solvent mixture MTBE/acetone/water; Table 3
Protocol: The HPLC methods used for the analysis: • 1. Isocratic method • Column: Dr Maisch ReproSil-Pur C18-AQ (150x4.0 mm, 3 um) • Column thermostat: 35 °C • Flow rate: 0.75 ml/min • Eluent: 28% acetonitrile, 72% water, 0.1% acetic acid • Detection wavelength: 230 +/- 5 nm • Injected volume: 10 ul • 2. Gradient method • Colum: Phenomenex Kinetex C18 (100x3.0 mm, 2.6 um) • Column thermostat: 35 °C • Flow rate: 0.7 ml/min • Eluent A: water + 0.1% acetic acid Eluent B: acetonitrile Gradient program: 0 min 20% B, 5 min: 30% B, 11 min 40% B, 13 min 40% B, 14 min 20% B, 18 min 20% B • Detection wavelength: 230 +/- 5 nm • Injected volume: 5 ul
Table 3: the selectivity matrix of the individual methods according to the invention

CC(=O)O[C@@]12CO[C@@H]1C[C@H](O)[C@@]1(CO)C(=O)[C@H](O)C3=C(C)[C@@H](O)C[C@@](O)([C@@H](OC(=O)c4ccccc4)[C@H]21)C3(C)C [RRT=0.48, 19-OH-10-deacetylbaccatin III]
selectivity: +++ (high selectivity)

— patent EP3386957B1, “PROCESS FOR THE PURIFICATION OF 10-DEACETYL BACCATIN III” (RotaChrom Technológiai és Szolgálató Zártkörüen Müködö …, priority 2015, dated 2017)
